Test results reported in patent US20100047371A1, “COMPOSITIONS AND METHODS FOR ORAL CANCER CHEMOPREVENTION USING BERRY PREPARATIONS AND EXTRACTS” (priority 2006, published 2010).

How the values were obtained:
[1] = Human pharmacokinetic study: anthocyanins in saliva and peripheral blood after topical gel application; assay type: in vivo; conditions: for Anthocyanin concentration in saliva / Anthocyanin concentration in peripheral blood: 1.0 g 5% FBR Gel, pH 6.5 topical to floor of mouth; for Anthocyanin concentration in saliva: saliva collected 2-5 min after application; for Anthocyanin concentration in peripheral blood: blood drawn five minutes after application
Experimental: Anthocyanin content in sera, saliva, and tissue explants was evaluated by an HPLC-MS assay. The respective samples (sera, saliva or tissue homogenates) were dissolved in 90% solvent A (water plus 1% formic acid) and 10% solvent B (acetonitrile plus 1% formic acid) and then separated on a Symmetry C18 reversed-phase column and analyzed using a Waters 2695 gradient HPLC separation module equipped with a 996 photodiode-array (PDA) UV/visible absorbance detector (Milford, Mass.). The solvent system consisted of a step gradient from 90% A to 50% B over 15 minutes, and the absorption spectra were recorded from 200-800 nm with the inline PDA detector. Mass spectrometry was conducted on a quadrupole ion tunnel mass spectrometer equipped with a Z-spray ESI source. Explant protein levels were determined by the Lowry method, using bovine γ-globulin as the standard protein [Lippman et al., 1993].
Next, evaluation of anthocyanin uptake into human oral mucosa from FBR gels prepared as described in Example 1 was undertaken. For in-vivo studies, participation of human subjects was conducted in accordance with an IRB approved protocol. […] For the phamacokinetic analyses, nine consenting adult volunteers dried the anterior floor of their mouth, placed 1.0 g of 5% berry gel (pH 6.5), and massaged the gel in place for 30 seconds to facilitate uptake. Two minutes after gel application saliva was collected for the next three minutes. Peripheral blood was drawn five minutes after gel application. Following clotting, sera samples were collected, and both the sera and saliva samples were stored at −80° C. until LC-MS analysis as described below.
All nine participants had detectable anthocyanin levels of three anthocyanins (cyanidin 3-rutinoside, cyanidin 3-xylosylrutinoside, cyanidin 3-glucoside) in either their saliva or blood, and 4 donors had detectable levels of two anthocyanins (cyanidin 3-rutinoside and cyanidin 3-xylosylrutinoside) in their peripheral blood. Saliva from eight of the nine donors contained detectable levels of either two (cyanidin 3-rutinoside and cyanidin 3-xylosylrutinoside-4 donors) or three anthocyanins (4 donors).

[2] = test system: Human Oral Mucosa Explant Tissues; assay: Effect of final gel pH on anthocyanin uptake into human oral mucosa explant tissues; assay type: in vitro ADME; conditions: 10% w/w FBR gel; for Anthocyanin uptake, Gel pH 3.5, Avg. ± SEM / Anthocyanin uptake, Gel pH 6.5, Avg. ± SEM: average of eleven explant samples; for % change 3.5 to 6.5, Avg. ± SEM: average of explant samples
Experimental: Anthocyanin content in sera, saliva, and tissue explants was evaluated by an HPLC-MS assay. The respective samples (sera, saliva or tissue homogenates) were dissolved in 90% solvent A (water plus 1% formic acid) and 10% solvent B (acetonitrile plus 1% formic acid) and then separated on a Symmetry C18 reversed-phase column and analyzed using a Waters 2695 gradient HPLC separation module equipped with a 996 photodiode-array (PDA) UV/visible absorbance detector (Milford, Mass.). The solvent system consisted of a step gradient from 90% A to 50% B over 15 minutes, and the absorption spectra were recorded from 200-800 nm with the inline PDA detector. Mass spectrometry was conducted on a quadrupole ion tunnel mass spectrometer equipped with a Z-spray ESI source. Explant protein levels were determined by the Lowry method, using bovine γ-globulin as the standard protein [Lippman et al., 1993]. Tissue explants, specifically human oral mucosal explants, were used to determine the in vitro effects of FBR content and pH on anthocyanin uptake. Human oral tissues for the tissue explant studies were obtained from consenting volunteers who were undergoing elective oral surgery procedures. To confirm “no pathologic diagnosis”, a portion of each of these tissues was submitted for light microscopic evaluation. […] Tissues for explant experiments were immediately placed in an artificial saliva transport medium, which also served as the incubation medium for the gel absorption studies. The composition of the artificial saliva used for tissue transport and incubation was (final concentrations): sodium carboxymethylcellulose (0.5%), sorbitol (165 mM), NaCl (14 mM), KCl (16 mM), calcium chloride dehydrate (1.0 mM), MgCl2 (0.63 mM), Trizma hydrochloride (2.0 mM). Tissues from eight donors were used for preliminary studies to compare the penetration of anthocyanins from the 5% berry gel and the 10% FBR gel, both at a final pH of 6.5. In order to account for heterogeneity among human donors, tissue samples were hemisected. One tissue portion treated with 5% and the other with 10% FBR gels. One gram of gel (containing either 5% or 10% w/w FBR) was placed on the epithelial surface of the explant, followed by gently rubbing of the site for 30 seconds to facilitate uptake. Explants were then placed into artificial saliva, incubated for 30 minutes (37° C., 5% CO2), and then frozen at −80° C. until HPLC-mass spectroscopy analyses as previously reported [Rodrigo et al., in press]. Tissue preparation for HPLC analyses consisted of homogenization of the entire oral mucosal specimen, removal of an aliquot for sample protein level determination, followed by the addition of collagenase type II (0.1 mg/mL, GIBCO, Grand Island, N.Y.) and 1% formic acid. Samples were then placed on a Sep Pack (Millipore, Billerica, Mass.), eluted with methanol, and dried under argon gas. Additional oral mucosal explant studies were conducted to compare the effect of FBR gel pH on absorption into oral mucosal explants. Tissues from eleven donors were used for these studies, and handling was as described above with the exception that all gels contained 10% w/w FBR and were formulated at a final pH of 3.5 or 6.5. […] Large differences (up to 15-fold) in detectable anthocyanin levels were found in the gel treated donor tissues; findings that likely reflect the extensive heterogeneity within human tissues that affects tissue penetrative abilities.

OC[C@H]1O[C@@H](Oc2cc3c(O)cc(O)cc3[o+]c2-c2ccc(O)c(O)c2)[C@H](O)[C@@H](O)[C@@H]1O [cyanidin 3-glucoside]
Anthocyanin concentration in saliva ([1]; patient 104): 11.2 pmol/mL | Anthocyanin concentration in saliva ([1]; patient 105): 9.7 pmol/mL | Anthocyanin concentration in saliva ([1]; patient 107): 19.7 pmol/mL | Anthocyanin concentration in saliva ([1]; patient 109): 22.8 pmol/mL | Anthocyanin uptake, Gel pH 3.5, Avg. ± SEM [2]: 29.6 pmol per mg tissue | Anthocyanin uptake, Gel pH 6.5, Avg. ± SEM [2]: 50.2 pmol per mg tissue | % change 3.5 to 6.5, Avg. ± SEM [2]: 85.6% | % change 3.5 to 6.5 ([2]; explant sample 001): 131.6% | Anthocyanin uptake, Gel pH 3.5 ([2]; explant sample 001): 128.1 pmol per mg tissue | Anthocyanin uptake, Gel pH 6.5 ([2]; explant sample 001): 296.6 pmol per mg tissue | % change 3.5 to 6.5 ([2]; explant sample 002): 36.2% | Anthocyanin uptake, Gel pH 3.5 ([2]; explant sample 002): 13.6 pmol per mg tissue | Anthocyanin uptake, Gel pH 6.5 ([2]; explant sample 002): 18.5 pmol per mg tissue | % change 3.5 to 6.5 ([2]; explant sample 003): −16.6% | Anthocyanin uptake, Gel pH 3.5 ([2]; explant sample 003): 14.4 pmol per mg tissue | Anthocyanin uptake, Gel pH 6.5 ([2]; explant sample 003): 12.0 pmol per mg tissue | % change 3.5 to 6.5 ([2]; explant sample 004): 653.5% | Anthocyanin uptake, Gel pH 3.5 ([2]; explant sample 004): 1.6 pmol per mg tissue | Anthocyanin uptake, Gel pH 6.5 ([2]; explant sample 004): 12.0 pmol per mg tissue | % change 3.5 to 6.5 ([2]; explant sample 005): 65.3% | Anthocyanin uptake, Gel pH 3.5 ([2]; explant sample 005): 32.0 pmol per mg tissue | Anthocyanin uptake, Gel pH 6.5 ([2]; explant sample 005): 52.9 pmol per mg tissue | % change 3.5 to 6.5 ([2]; explant sample 006): 91.3% | Anthocyanin uptake, Gel pH 3.5 ([2]; explant sample 006): 31.5 pmol per mg tissue | Anthocyanin uptake, Gel pH 6.5 ([2]; explant sample 006): 60.3 pmol per mg tissue | % change 3.5 to 6.5 ([2]; explant sample 007): 34.5% | Anthocyanin uptake, Gel pH 3.5 ([2]; explant sample 007): 17.0 pmol per mg tissue | Anthocyanin uptake, Gel pH 6.5 ([2]; explant sample 007): 22.8 pmol per mg tissue | % change 3.5 to 6.5 ([2]; explant sample 008): −40.7% | Anthocyanin uptake, Gel pH 3.5 ([2]; explant sample 008): 33.2 pmol per mg tissue | Anthocyanin uptake, Gel pH 6.5 ([2]; explant sample 008): 19.7 pmol per mg tissue | % change 3.5 to 6.5 ([2]; explant sample 009): 113.9% | Anthocyanin uptake, Gel pH 3.5 ([2]; explant sample 009): 21.2 pmol per mg tissue | Anthocyanin uptake, Gel pH 6.5 ([2]; explant sample 009): 45.3 pmol per mg tissue | % change 3.5 to 6.5 ([2]; explant sample 010): −66.9% | Anthocyanin uptake, Gel pH 3.5 ([2]; explant sample 010): 13.9 pmol per mg tissue | Anthocyanin uptake, Gel pH 6.5 ([2]; explant sample 010): 4.6 pmol per mg tissue | % change 3.5 to 6.5 ([2]; explant sample 011): −60.1% | Anthocyanin uptake, Gel pH 3.5 ([2]; explant sample 011): 18.9 pmol per mg tissue | Anthocyanin uptake, Gel pH 6.5 ([2]; explant sample 011): 7.5 pmol per mg tissue

C[C@@H]1O[C@@H](OC[C@H]2O[C@@H](Oc3cc4c(O)cc(O)cc4[o+]c3-c3ccc(O)c(O)c3)[C@H](O)[C@@H](O)[C@@H]2O)[C@H](O)[C@H](O)[C@H]1O [cyanidin 3-rutinoside]
number of donors with detectable levels in peripheral blood ([1]; of nine participants, 5% berry gel (pH 6.5), five minutes after application): 4 donors | Anthocyanin concentration in saliva ([1]; patient 101): 3.5 pmol/mL | Anthocyanin concentration in saliva ([1]; patient 102): 1.7 pmol/mL | Anthocyanin concentration in peripheral blood ([1]; patient 103): 2.3 pmol/mL | Anthocyanin concentration in saliva ([1]; patient 104): 4.6 pmol/mL | Anthocyanin concentration in peripheral blood ([1]; patient 105): 7.4 pmol/mL | Anthocyanin concentration in saliva ([1]; patient 105): 8.3 pmol/mL | Anthocyanin concentration in peripheral blood ([1]; patient 106): 5.6 pmol/mL | Anthocyanin concentration in saliva ([1]; patient 106): 6.1 pmol/mL | Anthocyanin concentration in peripheral blood ([1]; patient 107): 5.8 pmol/mL | Anthocyanin concentration in saliva ([1]; patient 107): 9.3 pmol/mL | Anthocyanin concentration in saliva ([1]; patient 108): 4.2 pmol/mL | Anthocyanin concentration in saliva ([1]; patient 109): 2.2 pmol/mL | Anthocyanin uptake, Gel pH 3.5, Avg. ± SEM [2]: 31.9 pmol per mg tissue | Anthocyanin uptake, Gel pH 6.5, Avg. ± SEM [2]: 113.0 pmol per mg tissue | % change 3.5 to 6.5, Avg. ± SEM [2]: 956.3% | % change 3.5 to 6.5 ([2]; explant sample 001): 474.1% | Anthocyanin uptake, Gel pH 3.5 ([2]; explant sample 001): 116.4 pmol per mg tissue | Anthocyanin uptake, Gel pH 6.5 ([2]; explant sample 001): 668.3 pmol per mg tissue | % change 3.5 to 6.5 ([2]; explant sample 002): 627.2% | Anthocyanin uptake, Gel pH 3.5 ([2]; explant sample 002): 9.3 pmol per mg tissue | Anthocyanin uptake, Gel pH 6.5 ([2]; explant sample 002): 67.8 pmol per mg tissue | % change 3.5 to 6.5 ([2]; explant sample 003): −14.8% | Anthocyanin uptake, Gel pH 3.5 ([2]; explant sample 003): 34.3 pmol per mg tissue | Anthocyanin uptake, Gel pH 6.5 ([2]; explant sample 003): 29.2 pmol per mg tissue | % change 3.5 to 6.5 ([2]; explant sample 004): −64.4% | Anthocyanin uptake, Gel pH 3.5 ([2]; explant sample 004): 26.3 pmol per mg tissue | Anthocyanin uptake, Gel pH 6.5 ([2]; explant sample 004): 9.4 pmol per mg tissue | % change 3.5 to 6.5 ([2]; explant sample 005): −20.0% | Anthocyanin uptake, Gel pH 3.5 ([2]; explant sample 005): 3.5 pmol per mg tissue | Anthocyanin uptake, Gel pH 6.5 ([2]; explant sample 005): 2.8 pmol per mg tissue | % change 3.5 to 6.5 ([2]; explant sample 006): 362.1% | Anthocyanin uptake, Gel pH 3.5 ([2]; explant sample 006): 45.7 pmol per mg tissue | Anthocyanin uptake, Gel pH 6.5 ([2]; explant sample 006): 211.1 pmol per mg tissue | % change 3.5 to 6.5 ([2]; explant sample 007): 45.1% | Anthocyanin uptake, Gel pH 3.5 ([2]; explant sample 007): 5.6 pmol per mg tissue | Anthocyanin uptake, Gel pH 6.5 ([2]; explant sample 007): 8.1 pmol per mg tissue | % change 3.5 to 6.5 ([2]; explant sample 008): 8905.1% | Anthocyanin uptake, Gel pH 3.5 ([2]; explant sample 008): 0.4 pmol per mg tissue | Anthocyanin uptake, Gel pH 6.5 ([2]; explant sample 008): 35.1 pmol per mg tissue | % change 3.5 to 6.5 ([2]; explant sample 009): 395.1% | Anthocyanin uptake, Gel pH 3.5 ([2]; explant sample 009): 43.9 pmol per mg tissue | Anthocyanin uptake, Gel pH 6.5 ([2]; explant sample 009): 207.4 pmol per mg tissue | % change 3.5 to 6.5 ([2]; explant sample 010): −91.4% | Anthocyanin uptake, Gel pH 3.5 ([2]; explant sample 010): 37.1 pmol per mg tissue | Anthocyanin uptake, Gel pH 6.5 ([2]; explant sample 010): 3.2 pmol per mg tissue | % change 3.5 to 6.5 ([2]; explant sample 011): −98.7% | Anthocyanin uptake, Gel pH 3.5 ([2]; explant sample 011): 28.7 pmol per mg tissue | Anthocyanin uptake, Gel pH 6.5 ([2]; explant sample 011): 0.4 pmol per mg tissue
